Results published in ChEMBL document CHEMBL5584329, “Development of new dehydrocostuslactone derivatives for treatment of atopic dermatitis via inhibition of the NF-κB signaling pathway” (RSC Med Chem, 2024).

Key:
[1] = test system: RAW264.7; experiment: Inhibition of LPS-induced NO production in mouse RAW264.7 cells at 20 uM preincubated for 2 hrs followed by LPS addition and measured after 24 hrs by Griess assay relative to control; format: functional; settings: time 26 hrs
[2] = Cytotoxicity against mouse RAW264.7 cells assessed as inhibition of cell viability at 20 uM by MTT assay relative to control; format: toxicity, cell-based; settings: read-out: INH
[3] = test system: RAW264.7; experiment: Inhibition of LPS-induced NO production in mouse RAW264.7 cells preincubated for 2 hrs followed by LPS addition and measured after 24 hrs by Griess assay relative to control; format: functional, cell-based
[4] = Cytotoxicity against mouse RAW264.7 cells assessed as inhibition of cell viability by MTT assay relative to control; format: toxicity, cell-based

| SMILES | inhibition at 20 µM [1] | cytotoxicity at 20 µM [2] | IC50 [3] | IC50 [4] |
| --- | --- | --- | --- | --- |
| C=C1CC[C@H]2C(=C)CC[C@H]3C(CN(CCNS(=O)(=O)c4cccc(Cl)c4F)S(=O)(=O)c4cccc(Cl)c4F)C(=O)O[C@@H]3[C@@H]12 (stereo partly specified) | 48.1% | 1.67% |  |  |
| C=C1CC[C@H]2C(=C)CC[C@H]3C(CNCCNCc4cc(Cl)cc(Cl)c4O)C(=O)O[C@@H]3[C@@H]12 (stereo partly specified) | 51.5% | 8.94% | 19.4 µM | > 40 µM |
| C=C1CC[C@H]2C(=C)CC[C@H]3C(CN(CCNS(=O)(=O)c4cc(Cl)c(F)cc4F)S(=O)(=O)c4cc(Cl)c(F)cc4F)C(=O)O[C@@H]3[C@@H]12 (stereo partly specified) | 68.1% | 10.4% | 12.9 µM | > 40 µM |
| C=C1CC[C@H]2C(=C)CC[C@H]3C(CN(CCNS(=O)(=O)c4ccc(C(C)(C)C)cc4)S(=O)(=O)c4ccc(C(C)(C)C)cc4)C(=O)O[C@@H]3[C@@H]12 (stereo partly specified) | 81.2% | 9.88% | 6.31 µM | > 40 µM |
| C=C1CC[C@H]2C(=C)CC[C@H]3C(CN(CCNS(=O)(=O)c4ccc(C)cc4)S(=O)(=O)c4ccc(C)cc4)C(=O)O[C@@H]3[C@@H]12 (stereo partly specified) | 82.5% | 14.8% | 7.72 µM | > 40 µM |
| C=C1CC[C@H]2C(=C)CC[C@H]3C(=C)C(=O)O[C@@H]3[C@@H]12 [DEHYDROCOSTUSLACTONE] | 40.3% | 17.3% | 21.5 µM | > 40 µM |
| C=C1CC[C@H]2C(=C)CC[C@H]3C(CN(CCNS(=O)(=O)c4ccc5ccccc5c4)S(=O)(=O)c4ccc5ccccc5c4)C(=O)O[C@@H]3[C@@H]12 (stereo partly specified) | 76.8% | 8.58% | 16.6 µM | > 40 µM |
